Consider 39 molecules from US20220168309A1 (F-STAR THERAPEUTICS, INC., priority 2019, published 2022).

Bounds are passed on as bounds.

One assay deals with STING (Homo sapiens, UniProt Q86WV6). Nature of the assay: STING antagonist activity, cell-based ISG54 promoter-reporter luciferase measurement of IRF activity (THP-1 dual / RAW-ISG cells). The following applies: Antagonist Activity of Exemplary Compounds; cell line and agonist not given. As for the experimental part: THP-1 dual cells (InvivoGen) were cultured under 5% CO2 at 37° C. in RPMI containing 10% fetal bovine serum (FBS), 100 IU mL-1 penicillin and 100 μg mL-1 streptomycin. RAW-ISG cells (InvivoGen) were cultured under 5% CO2 at 37° C. in DMEM containing 10% fetal bovine serum (FBS), 100 IU mL-1 penicillin and 100 μg mL-1 streptomycin. THP-1 dual cells were seeded into the 96 well assay plate on the day of assay whereas RAW cells were seeded into the 96 well assay plate 18 hours before the assay.
Chain of STING (Q86WV6 whole entry): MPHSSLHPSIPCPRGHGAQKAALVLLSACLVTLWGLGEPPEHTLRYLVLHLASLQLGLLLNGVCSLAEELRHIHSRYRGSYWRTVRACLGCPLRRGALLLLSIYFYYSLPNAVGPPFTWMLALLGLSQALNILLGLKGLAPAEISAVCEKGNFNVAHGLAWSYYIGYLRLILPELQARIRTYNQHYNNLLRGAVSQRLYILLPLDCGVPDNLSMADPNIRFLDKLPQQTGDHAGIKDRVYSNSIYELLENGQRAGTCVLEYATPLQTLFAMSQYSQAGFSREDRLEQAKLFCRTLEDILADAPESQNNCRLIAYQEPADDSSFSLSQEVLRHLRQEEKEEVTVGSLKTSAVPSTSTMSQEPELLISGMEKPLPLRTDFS
50,000 cells seeded in a 96-well flat bottom white assay plate were treated with different concentrations (10 uM to 0.01 uM) of compounds for 1 h followed by STING induction with either 30 nM SB 11285 or 10 ug/mL 2′-3′ cGAMP. The cells were then incubated for 20 hours @ 37° C. in CO2 incubator before measuring IRF activation by using Quanti-Luc (InvivoGen). The % inhibition was calculated as 100−{[(luminescence of COI treated well/luminescence of non-COI treated well)/100]×100}. IC50 was calculated by plotting in Xlfit.
50,000 cells seeded in a 96-well flat bottom white assay plate were treated with different concentrations (10 uM to 0.01 uM) of compounds for 1 h followed by STING induction with either 1 μM SB 11285 or 10 ug/mL 2′-3′ cGAMP. The cells were then incubated for 20 hours @ 37° C. in CO2 incubator before measuring IRF activation by using Quanti-Luc (InvivoGen). The % inhibition was calculated as 100−{[(luminescence of COI treated well/luminescence of non-COI treated well)/100]×100}. IC50 was calculated by plotting in Xlfit.
THP1-Dual-WT cells (InvivoGen) were plated into 96-well flat bottom plate at 5×10^4 cells/140 μL/well in triplicate. Cells were then treated with diluted antagonist compounds at 10 μL/well for 1 h, followed by treatment with compounds or 2′3′-cGAMP/lipo mixture for 18 h. The levels of IRF activity were determined using Quanti-luc (InvivoGen) and calculated against IRF activity in DMSO-treated cells. IC50 and CC50 values were calculated using Xlfit.
One may read the IC50 as the concentration that gives 50% inhibition. The molecule `CC(=O)OCCCCCCCCn1c(C)nc2nc(Cl)nc(Cl)c21` [Compound 151, 8-(2,6-dichloro-8-methyl-7H-purin-7-yl)octyl acetate] returned an IC50 of 1000 to 5000 nM.

The same assay, now with this note: Antagonist Activity of Exemplary Compounds; cell line and agonist not given; read-out: IC50.
With `COC(=O)CCCCCOC1CCN(CCCCCCn2c(C)nc3nc(Cl)nc(Cl)c32)CC1` [Compound 156, Methyl 6-((1-(6-(2,6-dichloro-8-methyl-7H-purin-7-yl)hexyl)piperidin-4-yl)oxy)hexanoate], the IC50 lay in the range of 1000 to 5000 nM.

For `CCCCCCCCCCCCCCC(C(=O)OCc1ccc(OC)cc1)n1cnc2c(Cl)nc(Cl)nc21` (stereo not drawn) [Compound 15, 4-methoxybenzyl 2-(2,6-dichloro-9H-purin-9-yl)hexadecanoate], the IC50 is greater than 20000 nM.

Consider `COC(=O)CCCCCCCCCCCCCCCn1c(CN2CCOCC2)nc2nc(Cl)nc(Cl)c21` [Compound 154, methyl 16-(2,6-dichloro-8-(morpholinomethyl)-7H-purin-7-yl)hexadecanoate], for which the IC50 lay in the range of 1 to 1000 nM.

In the case of `COC(=O)CCCCCCCCCCCCCCCn1c(C)nc2nc(Cl)nc(Cl)c21` [Compound 29, methyl 16-(2,6-dichloro-8-methyl-7H-purin-7-yl)hexadecanoate], the IC50 is 1 to 1000 nM.

For the molecule `Cc1nc2nc(Cl)nc(S(=O)(=O)C(C)C)c2n1CCCCCCCCCCN1CCOCC1` [Compound 137, 4-(10-(2-chloro-6-(isopropylsulfonyl)-8-methyl-7H-purin-7-yl)decyl)morpholine], the IC50 lay in the range of 1000 to 5000 nM.

Regarding `COC(=O)CCCC(=O)N1CNc2nc(Cl)nc(Cl)c21` [Compound 80, methyl 5-(2,6-dichloro-8,9-dihydro-7H-purin-7-yl)-5-oxopentanoate], the IC50 is greater than 20000 nM.

`COC(=O)CCCCCCCCCCCCCCCn1ccc2c(Cl)nc(Cl)nc21` [Compound 50, methyl 16-(2,4-dichloro-7H-pyrrolo[2,3-d]pyrimidin-7-yl)hexadecanoate]: the IC50 is greater than 20000 nM.

With `Cc1nc2nc(Cl)nc(Cl)c2n1CCCCCCCCCCCCCCCc1nnnn1C` [Compound 101, 2,6-dichloro-8-methyl-7-(15-(1-methyl-1H-tetrazol-5-yl)pentadecyl)-7H-purine], the IC50 lay within 1 to 1000 nM.

In the case of `Cc1nc2nc(Cl)nc(SC(C)C)c2n1CCCCCCCCCC[N+]1([O-])CCOCC1` [Compound 129, 4-(10-(2-chloro-6-(isopropylthio)-8-methyl-7H-purin-7-yl)decyl)morpholine 4-oxide], the IC50 was greater than 20000 nM.

As for `COC(=O)CCCCCCCCCCCCCCCn1cnc2nc(Cl)nc(S(C)(=O)=O)c21` [Compound 39, methyl 16-(2-chloro-6-(methylsulfonyl)-7H-purin-7-yl) hexadecanoate], the IC50 was greater than 20000 nM.

Turning to `COC(=O)CCCn1c(C)nc2nc(Cl)nc(Cl)c21` [Compound 116, methyl 4-(2,6-dichloro-8-methyl-7H-purin-7-yl)butanoate], the 50% inhibitory concentration (IC50) was 5000 to 10000 nM.

As to `COC(=O)C(C)(C)n1cnc2nc(Cl)nc(Cl)c21` [Compound 56, methyl 2-(2,6-dichloro-7H-purin-7-yl)-2-methylpropanoate], the IC50 is greater than 20000 nM.

In the case of `O=C(O)CCCCCCCCCCCCCCCn1cnc2nc(Cl)nc(O)c21` [Compound 10, 16-(2-chloro-6-hydroxy-7H-purin-7-yl)hexadecanoic acid], the IC50 was greater than 20000 nM.

Take `Cc1nc2nc(Cl)nc(S(=O)(=O)C(C)C)c2n1CCCCCCCCCCCCCCCC(=O)N(C)C` [Compound 150, 16-(2-chloro-6-(isopropylsulfonyl)-8-methyl-7H-purin-7-yl)-N,N-dimethylhexadecanamide]: the IC50 lay in the range of 1 to 1000 nM.

Turning to `Clc1nc(Cl)c2c(ncn2CCCCCCCCCCCCn2cnc3nc(Cl)nc(Cl)c32)n1` [Compound 35, 1,12-bis(2,6-dichloro-7H-purin-7-yl) dodecane], the IC50 lay in the range of 1000 to 5000 nM.

With `COC(=O)CCCCCCCCCCCCCCCn1c(O)nc2nc(Cl)nc(Cl)c21` [Compound 52, methyl 16-(2,6-dichloro-8-oxo-8,9-dihydro-7H-purin-7-yl)hexadecanoate], the IC50 was greater than 20000 nM.

For the molecule `COC(=O)CCCCCCNCCCCCCCCn1c(C)nc2nc(Cl)nc(S(=O)(=O)C(C)C)c21` [Compound 168, methyl 7-((8-(2-chloro-6-(isopropylsulfonyl)-8-methyl-7H-purin-7-yl)octyl)amino)heptanoate], the IC50 is 1 to 1000 nM.

As for `CCCCCCCCC(C(=O)OCC)n1cnc2c(Cl)nc(Cl)nc21` (stereo not drawn) [Compound 18, ethyl 2-(2,6-dichloro-9H-purin-9-yl)decanoate], the IC50 fell in the range of 1000 to 5000 nM.

Consider `Cc1nc2nc(Cl)nc(Cl)c2n1CCCCCCCl` [Compound 65, 2,6-dichloro-7-(6-chlorohexyl)-8-methyl-7H-purine], for which the IC50 is 1000 to 5000 nM.

On to `COC(=O)[C@@H](NC(=O)CCCCCCCCCCCCCCCn1c(C)nc2nc(Cl)nc(S(=O)(=O)C(C)C)c21)C(C)C` [Compound 148, methyl (16-(2-chloro-6-(isopropylsulfonyl)-8-methyl-7H-purin-7-yl)hexadecanoyl)-L-valinate], for which the IC50 was 1 to 1000 nM.

Turning to `OCCCCCCn1cnc2nc(Cl)nc(Cl)c21` [Compound 45, 6-(2,6-dichloro-7H-purin-7-yl)hexan-1-ol], the IC50 was 1000 to 5000 nM.

Take `OCCCCCCCCCCCCCCCCn1cnc2nc(Cl)nc(Cl)c21` [Compound 25, 16-(2,6-dichloro-7H-purin-7-yl)hexadecan-1-ol]: the IC50 lay in the range of 1 to 1000 nM.

For `COC(=O)CCCCCn1cnc2nc(Cl)nc(Cl)c21` [Compound 31, methyl 6-(2,6-dichloro-7H-purin-7-yl) hexanoate], the IC50 fell in the range of 1000 to 5000 nM.

For `COC(=O)CCCCCCCCCCCCCCCn1c(C)nc2nc(C#N)nc(C#N)c21` [Compound 126, Methyl 16-(2,6-dicyano-8-methyl-7H-purin-7-yl)hexadecanoate], the IC50 is greater than 20000 nM.

As for `COC(=O)CCCCn1cnc2nc(Cl)nc(Cl)c21` [Compound 32, methyl 5-(2,6-dichloro-7H-purin-7-yl)pentanoate], the IC50 fell in the range of 1000 to 5000 nM.

`Cc1nc2nc(Cl)nc(Cl)c2n1CCCCCCCCn1c(C)nc2nc(Cl)nc(Cl)c21` [Compound 63, 1,8-bis(2,6-dichloro-8-methyl-7H-purin-7-yl)octane]: the IC50 was 1 to 1000 nM.

For the molecule `COC(=O)CCCCCCN(C)CCCCCCCCn1c(C)nc2nc(Cl)nc(Cl)c21` [Compound 141, Methyl 7-((8-(2,6-dichloro-8-methyl-7H-purin-7-yl)octyl)(methyl)amino)heptanoate], the IC50 fell in the range of 1 to 1000 nM.

On to `Cc1nc2c(Cl)nc(Cl)nc2n1CCCCCCCCCCCCCCCc1nnnn1C` [Compound 100, 2,6-dichloro-8-methyl-9-(15-(1-methyl-1H-tetrazol-5-yl)pentadecyl)-9H-purine], for which the IC50 is 5000 to 10000 nM.

As for `COC(=O)CCCCCCCCCCCCCCCn1cnc2ncnc(S(C)(=O)=O)c21` [Compound 28, methyl 16-(6-(methylsulfonyl)-7H-purin-7-yl)hexadecanoate], the IC50 was in the range of 1 to 1000 nM.

On to `OCCCCCCCCCCn1cnc2nc(Cl)nc(Cl)c21` [Compound 40, 10-(2,6-dichloro-7H-purin-7-yl)decan-1-ol], for which the IC50 lay in the range of 1 to 1000 nM.

As for `COC(=O)CCCCn1c(C)nc2nc(Cl)nc(S(=O)(=O)C(C)C)c21` [Compound 121, methyl 5-(2-chloro-6-(isopropylsulfonyl)-8-methyl-7H-purin-7-yl)pentanoate], the IC50 is 1000 to 5000 nM.

For `CC(=O)OCCCCCn1cnc2nc(Cl)nc(Cl)c21` [Compound 33, 5-(2,6-dichloro-7H-purin-7-yl)pentyl acetate], the IC50 lay within 1000 to 5000 nM.

Regarding `COC(=O)CCCCCCCCCCCCCCCn1cnc2nc(Cl)nc(N)c21` [Compound 9, methyl (6-amino-2-chloro-7H-purin-7-yl)hexadecanoate], the IC50 was 1000 to 5000 nM.

For `COC(=O)CCCCCCCCCCCCCCCn1c(-c2ccccc2)nc2nc(Cl)nc(Cl)c21` [Compound 71, methyl 16-(2,6-dichloro-8-phenyl-7H-purin-7-yl)hexadecanoate], the IC50 is 1000 to 5000 nM.

On to `CCCCCCCCCCCCCCCCn1c(CO)nc2nc(Cl)nc(S(=O)(=O)C(C)C)c21` [Compound 122, (2-chloro-7-hexadecyl-6-(isopropylsulfonyl)-7H-purin-8-yl)methanol], for which the IC50 lay in the range of 1 to 1000 nM.

`Cc1nc2nc(Cl)nc(Cl)c2n1C` [Compound 82, 2,6-dichloro-7,8-dimethyl-7H-purine]: the IC50 fell in the range of 5000 to 10000 nM.

For the molecule `Cc1nc2nc(Cl)nc(S(=O)(=O)C(C)C)c2n1CCCCCCCCCCCCCCCC#N` [Compound 164, 16-(2-chloro-6-(isopropylsulfonyl)-8-methyl-7H-purin-7-yl)hexadecanenitrile], the IC50 was in the range of 1 to 1000 nM.

Consider `COC(=O)CCCCCCCCCCCCCCCn1cnc2nccc(Cl)c21` [Compound 41, methyl 16-(7-chloro-1H-imidazo[4,5-b]pyridin-1-yl) hexadecanoate], for which the IC50 was greater than 20000 nM.
